Results: PubChem BioAssay AID256 (DTP/NCI, 2004)
Inconclusive results and toxic doses are left out. Rule for the calls: active = survival T/C of 150% or more; inactive = T/C below 125% in these data.

Tested on: CD2F1 mice, L1210 leukemia ip, survival T/C
Assay: NCI In Vivo Anticancer Drug Screen. Data for tumor model L1210 Leukemia (intraperitoneal) in CD2F1 (CDF1) mice
Conditions: endpoint: mean survival time, higher = longer survival
Procedure, shortened: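 Mice carrying a transplanted tumor received test compound or vehicle alone. The value is the measurement in the treated group divided by that in the vehicle-treated control group.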

[1] = dose: 100.0 mg/kg/injection, schedule: Q01DX009 (ip), vehicle: saline with Tween-80
[2] = dose: 200.0 mg/kg/injection, schedule: Q01DX009 (ip), vehicle: saline with Tween-80
[3] = dose: 400.0 mg/kg/injection, schedule: Q01DX009 (ip), vehicle: saline with Tween-80

Measured: T/C

COC(=O)C(Cl)c1ccccc1 (centres undefined)
inactive: [1] 95 % of control | [2] 100 % of control | [3] 97 % of control

CC(=O)Oc1c(Cl)cc(Cl)c(Cl)c1[N+](=O)[O-]
inactive: dose: 100.0 mg/kg/injection, schedule: Q01DX001 (ip), vehicle: saline with Tween-80 93 % of control | dose: 200.0 mg/kg/injection, schedule: Q01DX001 (ip), vehicle: saline with Tween-80 93 % of control

CNCc1ccc([N+](=O)[O-])cc1
inactive: dose: 50.0 mg/kg/injection, schedule: Q01DX009 (ip), vehicle: saline 104 % of control | dose: 100.0 mg/kg/injection, schedule: Q01DX009 (ip), vehicle: saline 100 % of control | dose: 200.0 mg/kg/injection, schedule: Q01DX009 (ip), vehicle: saline 93 % of control

N=Cc1c(O)n(C2CCCCC2)c(=O)n(C2CCCCC2)c1=O
inactive: [1] 105 % of control | dose: 100.0 mg/kg/injection, schedule: Q04DX003 (ip), vehicle: saline with Tween-80 95 % of control | [2] 100 % of control | dose: 200.0 mg/kg/injection, schedule: Q04DX003 (ip), vehicle: saline with Tween-80 96 % of control | [3] 107 % of control | dose: 400.0 mg/kg/injection, schedule: Q04DX003 (ip), vehicle: saline with Tween-80 96 % of control
